Experiments:
[1] = target: T1, OBP14 (odorant binding protein 14) (Apis mellifera, UniProt A0A8U0WQC3); experiment: rGO-FET biosensor, real-time kinetics (koff/kon), source-drain current
T1 construct: recombinant, bacterial expression, purified by chromatography and Superose-12 gel filtration; covalently immobilized via PBSE linker on rGO FET gate
T1 sequence (A0A8U0WQC3 17-135): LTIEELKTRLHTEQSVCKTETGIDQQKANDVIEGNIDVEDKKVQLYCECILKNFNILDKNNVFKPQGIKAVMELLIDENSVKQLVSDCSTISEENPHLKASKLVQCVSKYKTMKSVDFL

[2] = target: T1, OBP14 (odorant binding protein 14); experiment: rGO-FET biosensor, equilibrium titration, Langmuir isotherm; details: protein covalently immobilized via PBSE on rGO gate; aqueous solution; titration determination
[3] = target: T1, OBP14 (odorant binding protein 14); experiment: rGO-FET biosensor, shift of ISD-vs-VG curves with ligand concentration; details: protein covalently immobilized via PBSE on rGO gate; liquid gate, VSD = 50 mV

Compound	Kd [1] [µM]	KA [2]	rGO-FET biosensor, shift of ISD-vs-VG curves with ligand concentration [3]
COc1cc(CC(=O)O)ccc1O [homovanillic acid]	7.1	2.5 × 10^5	–
C=CCc1ccc(O)c(OC)c1 [Eugenol]	–	–	OBP14 functionalized rGO FET-biosensor device at different Eugenol concentrations

Reference: PMC4931477, “Electronic Biosensing with Functionalized rGO FETs” (Biosensors, 2016)
